Laboratory results: patent US9416099B2 (priority 2010, dated 2016)
Several values for one entry are separate records, joined by “and”; a condition that tells them apart may be missing. Identical values can stand only once.

Key:
Staphylococcus aureas = assay type: cell-based
[1] = test system: Pseudomonas aeruginosa and Staphylococcus aureas; assay type: cell-based
Pseudomonas aeruginosa = assay type: cell-based
[2] = assay type: physicochemical

Molecule	Adjuvant 1 h, mL separation [mL]	Anionic 1 h, mL separation [mL]	Nonionic 1 h, mL separation [mL]	Adjuvant 24 h, mL separation [mL]	Anionic 24 h, mL separation [mL]	% Kill, Staphylococcus aureas, 400 ppm (Staphylococcus aureas) [%]	% Kill, Staphylococcus aureas, DI water (Staphylococcus aureas) [%]	Overall Rating [1]	% Kill, Pseudomonas aeruginosa, 400 ppm (Pseudomonas aeruginosa) [%]	% Kill, Pseudomonas aeruginosa, DI water (Pseudomonas aeruginosa) [%]	Nonionic 24 h, mL separation [mL]	% Separation 1 h [2] [%]	% Separation 24 h [2]
C[N+](C)(CCCNC(=O)CCCCCCCC=CCCCCCCCC(=O)NCCC[N+](C)(C)CC(=O)[O-])CC(=O)[O-] (mixture of isomers) [Mix-32, C18 DiBetaine]	0	0	0	0	0								
C=CCCCCCCCC(=O)NCCC[N+](C)(C)C [C10-18, C10 DMAPA Quat]						71.8	75.9	good	28.9	29.6			
C=CCCCCCCCC(=O)NCCC[N+](C)(C)CC(=O)[O-] [C10-22, C10 DMAPA Betaine]	0	0		0	0						0.5		
C=CCCCCCCCC(=O)NCCC[N+](C)(C)CC(O)CS(=O)(=O)[O-] (stereo not drawn) [C10-24, C10 DMAPA Sulfobetaine]	0	0	0.5	0	0						0.5		
C=CCCCCCCCC(=O)NCCC[N+](C)(C)Cc1ccccc1.[Cl-] [C10-31, C10 DMAPA Benzyl Quat]						65.5	79.7	superior	47.4	47.5			
C=CCCCCCCCC[N+](C)(C)C [C10-42, C10 Amine DMS Quat]	0	0		0	0								
CC/C=C/CCCCCCCC(=O)NCCC[N+](C)(C)C [C12-18]						66.3	42.4	good	40.5	58.7			
CC/C=C/CCCCCCCC(=O)NCCC[N+](C)(C)CC(=O)[O-] [C12-22, C12 DMAPA Betaine]	0	0	0	0	0								
CCCC(CCCCCCCC(=O)NCCC[N+](C)(C)CC(=O)[O-])S(=O)(=O)[O-].[Na+] (stereo not drawn) [C12-23, C12 DMAPA Betaine Sulfonate]	0	0		0	0						0.25	3	3.5% and 3%
CC/C=C/CCCCCCCC(=O)NCCC[N+](C)(C)CC(O)CS(=O)(=O)[O-] (stereo not drawn) [C12-24, C12 DMAPA Sulfobetaine]	0	0	0.25	0	0						1		
CC/C=C/CCCCCCCC[N+](C)(C)Cc1ccccc1 [C12-27, C12 Amine Benzyl Quat]	0	0		0	0	63.5	46.0	good	59.5	51.2			
CCCCCC/C=C/CCCCCCCC(=O)NCCC[N+](C)(C)CC(=O)[O-] [C16-13, C16 DMAPA Betaine]		0			0.25								
CCCCCC/C=C/CCCCCCCC[N+](C)(C)Cc1ccccc1 [C16-17, C16 Amine Benzyl Quat]						42.5	48.1	superior	39.4	42.6			
C[N+](C)(C)CCCNC(=O)CCCCCCC/C=C/CCCCCCCC(=O)NCCC[N+](C)(C)C [C18-27, C18 DiDMAPA DiQuat]						17.7	55.4	good	19.8	38.9			
C[N+](C)(C)CCCNC(=O)CCCCCCC/C=C/CCCCCCCC(=O)NCCC[N+](C)(C)[O-] [C18-35, C18 DiDMAPA Quat AO]						35.7	55.1	good	34.4	29.3			
CN(C)CCCNC(=O)CCCCCCC/C=C/CCCCCCCC(=O)NCCC[N+](C)(C)CC(=O)[O-] [C18-36, C18 DiDMAPA MonoBetaine]	0	0	0	0	0								
C[N+](C)([O-])CCCNC(=O)CCCCCCC/C=C/CCCCCCCC(=O)NCCC[N+](C)(C)CC(=O)[O-] [C18-37, C18 DiDMAPA Betaine AO]	0	0	0	0	0								
C[N+](C)(C)CCCNC(=O)CCCCCCC/C=C/CCCCCCCC(=O)NCCC[N+](C)(C)CC(=O)O [C18-38, C18 DiDMAPA Betaine Quat]						30.3	57.4	good	18.8	42.2			
C[N+](C)(CCCNC(=O)CCCCCCC/C=C/CCCCCCCC(=O)NCCC[N+](C)(C)Cc1ccccc1)Cc1ccccc1.[Cl-].[Cl-] [C18-65, C18 DiDMAPA Benzyl Quat]						20.6	55.6	good	24.7	30.4			
C[N+](C)(C)CCCNC(=O)CCCCCCC/C=C/CCCCCCCC(=O)NCCC[N+](C)(C)C [Mix-27, C18 DiDMAPA DiQuat]	0	0	0	0	0	23.2	56.1	good	23.2	52.4	0		
C[N+](C)(CCCNC(=O)CCCCCCC/C=C/CCCCCCCC(=O)NCCC[N+](C)(C)CC(O)CS(=O)(=O)[O-])CC(O)CS(=O)(=O)[O-] (stereo not drawn) [Mix-31, C18 DiSulfobetaine]	0	0	0	0	0								
CN(C)CCCNC(=O)CCCCCCC/C=C/CCCCCCCC(=O)NCCC[N+](C)(C)C [Mix-34, C18 DiDMAPA MonoQuat]						28.6	57.5	good	24.1	47.5			
C[N+](C)(C)CCCNC(=O)CCCCCCC/C=C/CCCCCCCC(=O)NCCC[N+](C)(C)[O-] [Mix-35, C18 DiDMAPA Quat AO]	0	0	5	0	0	20.9	55.6	good	22.1	31.4	1		
CN(C)CCCNC(=O)CCCCCCC/C=C/CCCCCCCC(=O)NCCC[N+](C)(C)CC(=O)[O-] [Mix-36, C18 DiDMAPA MonoBetaine]		0	0		0						0		
C[N+](C)([O-])CCCNC(=O)CCCCCCC/C=C/CCCCCCCC(=O)NCCC[N+](C)(C)CC(=O)[O-] [Mix-37, C18 DiDMAPA Betaine AO]		0	0	0.5							0		
C[N+](C)(C)CCCNC(=O)CCCCCCC/C=C/CCCCCCCC(=O)NCCC[N+](C)(C)CC(=O)O [Mix-38, C18 DiDMAPA Betaine Quat]	0.5		0	0.5							0		
COC(=O)CCCCCCC/C=C/CCCCCCCC(=O)NCCC[N+](C)(C)CC(=O)[O-] [Mix-48, C18 Ester DMAPA Betaine]	0	0	0	0	0						0.5		
C[N+](C)(CCCNC(=O)CCCCCCC/C=C/CCCCCCCC(=O)NCCC[N+](C)(C)Cc1ccccc1)Cc1ccccc1.[Cl-].[Cl-] [Mix-65, C18 DiDMAPA Benzyl Quat]						22.1	55.3	good	26.1	30.5			
calcium alkylbenzenesulfonate [Control 1, reference compound]												<0.2	1.3%
